Test results as given in article PMC9477735, “Phosphorylation of muramyl peptides by NAGK is required for NOD2 activation” (Nature, 2022).

Key:
[1] = biological target: T1, N-acetylglucosamine kinase (NAGK) (Homo sapiens, UniProt Q9UJ70); experiment: in vitro kinase assay with [γ-32P]ATP and TLC; LC-MS/MS; NMR of product; assay type: biochemical
T1 construct: full-length human NAGK, recombinant from E. coli, His-MBP tag removed

[2] = biological target: T1, N-acetylglucosamine kinase (NAGK); experiment: in vitro kinase assay with [γ-32P]ATP and TLC; assay type: biochemical

T1 sequence (Q9UJ70 2-344): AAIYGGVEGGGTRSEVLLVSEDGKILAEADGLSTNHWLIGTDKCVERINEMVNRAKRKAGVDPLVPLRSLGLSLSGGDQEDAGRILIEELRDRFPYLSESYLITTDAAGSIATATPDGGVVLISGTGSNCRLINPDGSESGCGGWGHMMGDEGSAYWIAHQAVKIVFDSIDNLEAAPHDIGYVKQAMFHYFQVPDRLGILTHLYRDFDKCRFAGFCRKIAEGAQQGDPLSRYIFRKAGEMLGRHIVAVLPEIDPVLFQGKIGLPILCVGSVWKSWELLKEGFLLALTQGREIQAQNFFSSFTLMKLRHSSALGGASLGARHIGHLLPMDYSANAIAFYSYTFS

| SMILES | in vitro kinase assay with [γ-32P]ATP and TLC; LC-MS/MS; NMR of product [1] | in vitro kinase assay with [γ-32P]ATP and TLC [2] |
| --- | --- | --- |
| CC(=O)N[C@H]1C(O)O[C@H](CO)[C@@H](O)[C@@H]1O[C@H](C)C(=O)N[C@@H](C)C(=O)N[C@H](CCC(=O)O)C(N)=O (some centres unmarked) [MDP] | These assays revealed that NAGK readily phosphorylated MDP and the related molecule N-acetylmuramic acid (MurNAc) | – |
| CC(=O)N[C@H]1C(O)O[C@H](CO)[C@@H](O)[C@@H]1O (some centres unmarked) [GlcNAc, N-acetylglucosamine] | – | to similar levels as its bona fide substrate GlcNAc (Fig. 3b) |
